Read-outs that look alike come from different tables or passages of the source.
Legend:
[1] = system: iPSC-CMs, iPSC-ECs and HUVECs phenotypes; assay: ToxPi 2.0 integration of POD values and physicochemical descriptors; set-up: species or system human; settings: ToxPi-scaled (0-1) score; for huvec.cyto.24hr / huvec.mito.24hr / huvec.mitoint.24hr / huvec.nma.24hr / huvec.tc.24hr / huvec.mtl.18hr / huvec.tlps.18hr / huvec.tta.18hr / huvec.ttl.18hr: HUVECs; for huvec.mtl.18hr / huvec.tlps.18hr / huvec.tta.18hr / huvec.ttl.18hr / endo.mtl.18hr / endo.tlps.18hr / endo.tta.18hr / endo.ttl.18hr: tube formation; for cm.amp.avg.90min / cm.amp.cv.90min / cm.bpm.90min / cm.cam.90min / cm.decay.rise.90min / cm.mii.90min / cm.mito.90min / cm.spacing.cv.90min / cm.tc.90min / cm.amp.avg.24hrs / cm.amp.cv.24hrs / cm.bpm.24hrs / cm.cam.24hrs / cm.decay.rise.24hrs / cm.mii.24hrs / cm.mito.24hrs / cm.spacing.cv.24hrs / cm.tc.24hrs: iPSC cardiomyocytes; for endo.cyto.24hr / endo.mito.24hr / endo.mitoint.24hr / endo.nma.24hr / endo.tc.24hr / endo.mtl.18hr / endo.tlps.18hr / endo.tta.18hr / endo.ttl.18hr: iPSC endothelial cells
Procedure, shortened: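 Phenotypic readouts in iPSC-cardiomyocytes, iPSC-endothelial cells and HUVECs were normalised to 0.5% DMSO vehicle and fitted to a four-parameter logistic model. POD set at one SD cutoff of vehicle means, with 100 μM assigned when no response. PODs and physicochemical descriptors combined in ToxPi 2.0 scores.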

[2] = system: iCell cardiomyocytes (human iPSC-derived cardiomyocytes); assay: High-content imaging of cytotoxicity and mitochondrial integrity in iPSC-CMs; format: cell-based; settings: Homo sapiens, Cardiomyocyte, cardiomyocytes (cm)
Procedure, shortened: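 Cardiomyocytes grown on gelatinized 384-well plates received fresh medium on the experiment day and were then exposed to chemicals at 0.01–100μM. Nuclei and mitochondria were labeled with Hoechst 33342 and MitoTracker™ Orange, then fixed, and imaged on an ImageXpress® Micro Confocal system. Four-parameter logistic concentration–response fits in R, with a one-standard-deviation vehicle cutoff, gave point-of-departure values.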

[3] = 1.5 h, cam, 90 min, read-out: POD cm.cam.90min
[4] = 1.5 h, mii, 90 min, read-out: POD cm.mii.90min
[5] = 1.5 h, mito, 90 min, read-out: POD cm.mito.90min
[6] = 1.5 h, tc, 90 min, read-out: POD cm.tc.90min
[7] = 24 h, cam, 24 hrs, read-out: POD cm.cam.24hrs
[8] = 24 h, mii, 24 hrs, read-out: POD cm.mii.24hrs
[9] = 24 h, mito, 24 hrs, read-out: POD cm.mito.24hrs
[10] = 24 h, tc, 24 hrs, read-out: POD cm.tc.24hrs

Clc1ccc(Cl)c(-c2cc(Cl)ccc2Cl)c1 [PCB 52, 2,2′,5,5′-tetrachlorobiphenyl]
huvec.cyto.24hr [1]: 0.5178
huvec.mito.24hr [1]: 0.613
huvec.mitoint.24hr [1]: 0.5572
huvec.nma.24hr [1]: 0.3829
huvec.tc.24hr [1]: 0.5178
huvec.mtl.18hr [1]: 0
huvec.tlps.18hr [1]: 0
huvec.tta.18hr [1]: 0
huvec.ttl.18hr [1]: 0
cm.amp.avg.90min [1]: 0.5597
cm.amp.cv.90min [1]: 0.1687
cm.bpm.90min [1]: 0.3203
cm.cam.90min [1]: 0.422
cm.decay.rise.90min [1]: 0.1841
cm.mii.90min [1]: 0.8432
cm.mito.90min [1]: 0.3815
cm.spacing.cv.90min [1]: 0.1566
cm.tc.90min [1]: 0.3874
cm.amp.avg.24hrs [1]: 0.3455
cm.amp.cv.24hrs [1]: 0.4979
cm.bpm.24hrs [1]: 0.3481
cm.cam.24hrs [1]: 0.3478
cm.decay.rise.24hrs [1]: 0.2921
cm.mii.24hrs [1]: 0.2822
cm.mito.24hrs [1]: 0.5634
cm.spacing.cv.24hrs [1]: 0.2305
cm.tc.24hrs [1]: 0.578
endo.cyto.24hr [1]: 0
endo.mito.24hr [1]: 0
endo.mitoint.24hr [1]: 0
endo.nma.24hr [1]: 0
endo.tc.24hr [1]: 0
endo.mtl.18hr [1]: 0.02365
endo.tlps.18hr [1]: 0
endo.tta.18hr [1]: 0
endo.ttl.18hr [1]: 0
minimal effective concentration [2, 3]: 36 µM
minimal effective concentration [2, 4]: 10.4 µM
minimal effective concentration [2, 5]: 39.2 µM
minimal effective concentration [2, 6]: 38.9 µM
minimal effective concentration [2, 7]: 7.5 µM
minimal effective concentration [2, 8]: 34.4 µM
minimal effective concentration [2, 9]: 7.32 µM
minimal effective concentration [2, 10]: 8.11 µM

COc1ccc(-c2cccc(Cl)c2)cc1Cl [4-OMe-PCB 11, 4-methoxy-3,3′-dichlorobiphenyl]
huvec.cyto.24hr [1]: 0.2668
huvec.mito.24hr [1]: 0.3305
huvec.mitoint.24hr [1]: 0.3626
huvec.nma.24hr [1]: 0.3507
huvec.tc.24hr [1]: 0.2668
huvec.mtl.18hr [1]: 0.5304
huvec.tlps.18hr [1]: 0.2567
huvec.tta.18hr [1]: 0
huvec.ttl.18hr [1]: 0.6633
cm.amp.avg.90min [1]: 0.6528
cm.amp.cv.90min [1]: 0.2486
cm.bpm.90min [1]: 0.4773
cm.cam.90min [1]: 0.4476
cm.decay.rise.90min [1]: 0.5303
cm.mii.90min [1]: 0.1771
cm.mito.90min [1]: 0.5027
cm.spacing.cv.90min [1]: 0.1369
cm.tc.90min [1]: 0.5138
cm.amp.avg.24hrs [1]: 0.152
cm.amp.cv.24hrs [1]: 0.06047
cm.bpm.24hrs [1]: 0.441
cm.cam.24hrs [1]: 0.1329
cm.decay.rise.24hrs [1]: 0.2452
cm.mii.24hrs [1]: 0.5873
cm.mito.24hrs [1]: 0.2518
cm.spacing.cv.24hrs [1]: 0.1755
cm.tc.24hrs [1]: 0.2526
endo.cyto.24hr [1]: 0
endo.mito.24hr [1]: 0
endo.mitoint.24hr [1]: 0
endo.nma.24hr [1]: 0
endo.tc.24hr [1]: 0
endo.mtl.18hr [1]: 0
endo.tlps.18hr [1]: 0.2016
endo.tta.18hr [1]: 1
endo.ttl.18hr [1]: 1
minimal effective concentration [2, 3]: 33.8 µM
minimal effective concentration [2, 4]: 62.2 µM
minimal effective concentration [2, 5]: 29.1 µM
minimal effective concentration [2, 6]: 28.6 µM
minimal effective concentration [2, 7]: 37.2 µM
minimal effective concentration [2, 8]: 10.8 µM
minimal effective concentration [2, 9]: 31.1 µM
minimal effective concentration [2, 10]: 33.4 µM
